The source of these data is ChEMBL document CHEMBL4342527, “Discovery of Novel Fungal Lanosterol 14α-Demethylase (CYP51)/Histone Deacetylase Dual Inhibitors to Treat Azole-Resistant Candidiasis” (J Med Chem, 2020).

Assay [1] concerns Candida albicans. The assay is described as follows: Antifungal activity against azole-sensitive Candida albicans SC5314 after 48 hrs by spectrophotometry-based serial microdilution method. The settings on record: Candida albicans, SC5314, 48 h; read-out: MIC80. Type of assay: functional.
For assay [2], the system named is Candida albicans. The assay can be described thus: Antifungal activity against azole-resistant Candida albicans 0304103 after 48 hrs by spectrophotometry-based serial microdilution method. Type of assay: functional. The settings on record: Candida albicans, 0304103, 48 h.
The test system of assay [3] is Candida albicans. The assay can be described thus: Antifungal activity against azole-resistant Candida albicans 7781 after 48 hrs by spectrophotometry-based serial microdilution method. In kind it is functional. Conditions: Candida albicans, 7781, 48 h. In general terms: Broth dilution looks for growth in wells or tubes with falling amounts of substance.
For assay [4], the system named is Candida albicans. The assay can be described thus: Antifungal activity against azole-resistant Candida albicans 4108 after 48 hrs by spectrophotometry-based serial microdilution method. Type of assay: functional. The settings on record: Candida albicans, 4108, 48 h.
The subject of another assay is Candida tropicalis. The assay is described as follows: Antifungal activity against azole-resistant Candida tropicalis 5008 after 48 hrs by spectrophotometry-based serial microdilution method. In kind it is functional. The settings on record: Candida tropicalis, 5008, 48 h.
In the next assay the test system is Cryptococcus neoformans. The assay can be described thus: Antifungal activity against azole-sensitive Cryptococcus neoformans H99 after 72 hrs by spectrophotometry-based serial microdilution method. Type of assay: functional, var grubii H99. Conditions: Cryptococcus neoformans, var grubii H99 , 72 h; read-out: MIC80.

Converted amounts (≈) assume the structure as drawn.

The MIC80 is the lowest concentration that inhibits either 80% of growth or 80% of the strains tested, depending on the study. Regarding `CN(Cc1ccccc1OCCCOc1ccc(C(=O)NO)cc1)CC(O)(Cn1cncn1)c1ccc(F)cc1F` (racemic), the MIC80 in the assay on Candida albicans [1] was 4 mg/L (≈ 7.05 µM); against Candida albicans [2], 4 mg/L (≈ 7.05 µM); against Candida albicans [3] it was 4 mg/L (≈ 7.05 µM); in the assay with Candida albicans [4], 1 mg/L (≈ 1.76 µM); in the assay on Candida tropicalis it was 8 mg/L (≈ 14.1 µM); in the assay with Cryptococcus neoformans, 0.5 mg/L (≈ 0.881 µM).
For `CN(Cc1ccccc1OCCCOc1ccc(CC(=O)NO)cc1)CC(O)(Cn1cncn1)c1ccc(F)cc1F` (racemic), the MIC80 in the assay on Candida albicans [1] worked out at 1 mg/L (≈ 1.72 µM); in the assay on Candida albicans [2] it was 2 mg/L (≈ 3.44 µM); against Candida albicans [3] it was 2 mg/L (≈ 3.44 µM); in the assay on Candida albicans [4] it was 2 mg/L (≈ 3.44 µM); against Candida tropicalis it was 2 mg/L (≈ 3.44 µM); in the assay on Cryptococcus neoformans, 0.5 mg/L (≈ 0.86 µM).
As for `CN(Cc1ccc(-n2cnn(CCCOc3ccc(CC(=O)NO)cc3)c2=O)cc1)CC(O)(Cn1cncn1)c1ccc(F)cc1F` (racemic), the MIC80 in the assay with Candida albicans [1] stood at 64 mg/L (≈ 98.7 µM); with Candida albicans [2], 32 mg/L (≈ 49.3 µM); in the assay with Candida albicans [3], 4 mg/L (≈ 6.17 µM); against Candida albicans [4] it was 32 mg/L (≈ 49.3 µM); in the assay on Candida tropicalis, 4 mg/L (≈ 6.17 µM); in the assay with Cryptococcus neoformans, 8 mg/L (≈ 12.3 µM).
Consider `CN(Cc1cccc(OCCCOc2ccc(CCC(=O)NO)cc2)c1)CC(O)(Cn1cncn1)c1ccc(F)cc1F` (racemic), for which the MIC80 with Candida albicans [1] amounted to 4 mg/L (≈ 6.72 µM); in the assay with Candida albicans [2], 8 mg/L (≈ 13.4 µM); against Candida albicans [3] it was 8 mg/L (≈ 13.4 µM); against Candida albicans [4], 4 mg/L (≈ 6.72 µM); against Candida tropicalis, 8 mg/L (≈ 13.4 µM); with Cryptococcus neoformans it was 2 mg/L (≈ 3.36 µM).
In the case of `CN(Cc1ccc(OCCCCCCCC(=O)NO)cc1)CC(O)(Cn1cncn1)c1ccc(F)cc1F` (racemic), the MIC80 with Candida albicans [1] is 0.25 mg/L (≈ 0.47 µM); against Candida albicans [2], 0.5 mg/L (≈ 0.941 µM); against Candida albicans [3], 0.5 mg/L (≈ 0.941 µM); against Candida albicans [4], 0.5 mg/L (≈ 0.941 µM); against Candida tropicalis, 1 mg/L (≈ 1.88 µM); in the assay on Cryptococcus neoformans, 0.5 mg/L (≈ 0.941 µM).
Regarding `CN(Cc1cccc(OCCCOc2ccc(C(=O)NO)cc2)c1)CC(O)(Cn1cncn1)c1ccc(F)cc1F` (racemic), the MIC80 in the assay on Candida albicans [1] stood at 1 mg/L (≈ 1.76 µM); in the assay with Candida albicans [2], 2 mg/L (≈ 3.52 µM); with Candida albicans [3], 4 mg/L (≈ 7.05 µM); against Candida albicans [4], 2 mg/L (≈ 3.52 µM); in the assay on Candida tropicalis, 4 mg/L (≈ 7.05 µM); in the assay with Cryptococcus neoformans it was 0.125 mg/L (≈ 0.22 µM).
In the case of `CN(Cc1ccc(-n2cnn(CCCCCCCCC(=O)NO)c2=O)cc1)CC(O)(Cn1cncn1)c1ccc(F)cc1F` (racemic), the MIC80 came to 2 mg/L (≈ 3.26 µM) in the assay on Candida albicans [1]; 4 mg/L (≈ 6.53 µM) against Candida albicans [2]; 4 mg/L (≈ 6.53 µM) in the assay on Candida albicans [3]; 32 mg/L (≈ 52.2 µM) against Candida albicans [4]; 8 mg/L (≈ 13.1 µM) against Candida tropicalis; 4 mg/L (≈ 6.53 µM) in the assay on Cryptococcus neoformans.
Regarding `CN(Cc1ccc(-n2cnn(CCCc3ccc(C(=O)NO)cc3)c2=O)cc1)CC(O)(Cn1cncn1)c1ccc(F)cc1F` (racemic), the MIC80 amounted to 32 mg/L (≈ 51.7 µM) in the assay on Candida albicans [1]; 4 mg/L (≈ 6.47 µM) against Candida albicans [2]; 2 mg/L (≈ 3.23 µM) against Candida albicans [3]; 32 mg/L (≈ 51.7 µM) against Candida albicans [4]; 8 mg/L (≈ 12.9 µM) against Candida tropicalis; 2 mg/L (≈ 3.23 µM) in the assay on Cryptococcus neoformans.
As for `CN(Cc1ccc(CCCC(=O)Nc2ccc(CC(=O)NO)cc2)cc1)CC(O)(Cn1cncn1)c1ccc(F)cc1F` (racemic), the MIC80 amounted to 1 mg/L (≈ 1.69 µM) in the assay with Candida albicans [1]; 1 mg/L (≈ 1.69 µM) in the assay on Candida albicans [2]; 1 mg/L (≈ 1.69 µM) in the assay with Candida albicans [3]; 1 mg/L (≈ 1.69 µM) with Candida albicans [4]; 32 mg/L (≈ 54 µM) against Candida tropicalis; 1 mg/L (≈ 1.69 µM) with Cryptococcus neoformans.
Take `CN(Cc1ccc(CCCCOc2ccc(CC(=O)NO)cc2)cc1)CC(O)(Cn1cncn1)c1ccc(F)cc1F` (racemic): the MIC80 worked out at 0.125 mg/L (≈ 0.216 µM) in the assay on Candida albicans [1]; 0.5 mg/L (≈ 0.863 µM) in the assay with Candida albicans [2]; 1 mg/L (≈ 1.73 µM) in the assay on Candida albicans [3]; 1 mg/L (≈ 1.73 µM) against Candida albicans [4]; 0.5 mg/L (≈ 0.863 µM) with Candida tropicalis; 0.5 mg/L (≈ 0.863 µM) in the assay on Cryptococcus neoformans.
With `CCN(Cc1ccc(OCCCOc2ccc(CC(=O)NO)cc2)cc1)CC(O)(Cn1cncn1)c1ccc(F)cc1F` (racemic), the MIC80 in the assay with Candida albicans [1] is 0.25 mg/L (≈ 0.42 µM); with Candida albicans [2], 1 mg/L (≈ 1.68 µM); in the assay with Candida albicans [3], 1 mg/L (≈ 1.68 µM); with Candida albicans [4], 4 mg/L (≈ 6.72 µM); with Candida tropicalis, 4 mg/L (≈ 6.72 µM); with Cryptococcus neoformans it was 1 mg/L (≈ 1.68 µM).
Consider `CN(Cc1ccc(OCCCCCC(=O)NO)cc1)CC(O)(Cn1cncn1)c1ccc(F)cc1F` (racemic), for which the MIC80 with Candida albicans [1] came out at 1 mg/L (≈ 1.99 µM); with Candida albicans [2], 2 mg/L (≈ 3.97 µM); with Candida albicans [3] it was 1 mg/L (≈ 1.99 µM); with Candida albicans [4] it was 4 mg/L (≈ 7.94 µM); in the assay on Candida tropicalis it was 8 mg/L (≈ 15.9 µM); in the assay on Cryptococcus neoformans it was 1 mg/L (≈ 1.99 µM).
As to `CN(Cc1ccc(-n2cnn(CCOc3ccc(CC(=O)NO)cc3)c2=O)cc1)CC(O)(Cn1cncn1)c1ccc(F)cc1F` (racemic), the MIC80 in the assay on Candida albicans [1] is 2 mg/L (≈ 3.15 µM); in the assay on Candida albicans [2], 4 mg/L (≈ 6.3 µM); in the assay with Candida albicans [3] it was 4 mg/L (≈ 6.3 µM); against Candida albicans [4], 32 mg/L (≈ 50.4 µM); in the assay with Candida tropicalis, 8 mg/L (≈ 12.6 µM); with Cryptococcus neoformans it was 4 mg/L (≈ 6.3 µM).
With `CN(Cc1ccc(OCCCCCCC(=O)NO)cc1)CC(O)(Cn1cncn1)c1ccc(F)cc1F` (racemic), the MIC80 was 1 mg/L (≈ 1.93 µM) in the assay with Candida albicans [1]; 1 mg/L (≈ 1.93 µM) against Candida albicans [2]; 1 mg/L (≈ 1.93 µM) in the assay with Candida albicans [3]; 1 mg/L (≈ 1.93 µM) against Candida albicans [4]; 2 mg/L (≈ 3.86 µM) in the assay with Candida tropicalis; 1 mg/L (≈ 1.93 µM) with Cryptococcus neoformans.
For the molecule `CN(Cc1ccc(OCCCOc2ccc(CCC(=O)NO)cc2)cc1)CC(O)(Cn1cncn1)c1ccc(F)cc1F` (racemic), the MIC80 in the assay on Candida albicans [1] amounted to 1 mg/L (≈ 1.68 µM); in the assay with Candida albicans [2] it was 2 mg/L (≈ 3.36 µM); against Candida albicans [3], 2 mg/L (≈ 3.36 µM); against Candida albicans [4], 4 mg/L (≈ 6.72 µM); against Candida tropicalis, 4 mg/L (≈ 6.72 µM); in the assay with Cryptococcus neoformans, 1 mg/L (≈ 1.68 µM).
For `CN(Cc1ccc(CCCC(=O)Nc2ccc(C(=O)NO)cc2)cc1)CC(O)(Cn1cncn1)c1ccc(F)cc1F` (racemic), the MIC80 is 4 mg/L (≈ 6.91 µM) with Candida albicans [1]; 16 mg/L (≈ 27.7 µM) against Candida albicans [2]; 8 mg/L (≈ 13.8 µM) with Candida albicans [3]; 32 mg/L (≈ 55.3 µM) with Candida albicans [4]; 8 mg/L (≈ 13.8 µM) against Candida tropicalis; 8 mg/L (≈ 13.8 µM) with Cryptococcus neoformans.
Take `CN(Cc1cccc(OCCCOc2ccc(CC(=O)NO)cc2)c1)CC(O)(Cn1cncn1)c1ccc(F)cc1F` (racemic): the MIC80 with Candida albicans [1] amounted to 2 mg/L (≈ 3.44 µM); in the assay on Candida albicans [2], 4 mg/L (≈ 6.88 µM); in the assay with Candida albicans [3] it was 2 mg/L (≈ 3.44 µM); in the assay on Candida albicans [4], 2 mg/L (≈ 3.44 µM); in the assay on Candida tropicalis, 2 mg/L (≈ 3.44 µM); in the assay on Cryptococcus neoformans it was 1 mg/L (≈ 1.72 µM).
Turning to `CN(Cc1ccc(OCCCCC(=O)NO)cc1)CC(O)(Cn1cncn1)c1ccc(F)cc1F` (racemic), the MIC80 was found to be 2 mg/L (≈ 4.09 µM) in the assay on Candida albicans [1]; 2 mg/L (≈ 4.09 µM) against Candida albicans [2]; 2 mg/L (≈ 4.09 µM) in the assay with Candida albicans [3]; 8 mg/L (≈ 16.3 µM) in the assay with Candida albicans [4]; 8 mg/L (≈ 16.3 µM) against Candida tropicalis; 2 mg/L (≈ 4.09 µM) in the assay with Cryptococcus neoformans.
As to `CN(Cc1ccc(CCCOc2ccc(CC(=O)NO)cc2)cc1)CC(O)(Cn1cncn1)c1ccc(F)cc1F` (racemic), the MIC80 was determined as 0.125 mg/L (≈ 0.221 µM) in the assay with Candida albicans [1]; 0.5 mg/L (≈ 0.884 µM) in the assay with Candida albicans [2]; 0.25 mg/L (≈ 0.442 µM) in the assay on Candida albicans [3]; 0.5 mg/L (≈ 0.884 µM) against Candida albicans [4]; 2 mg/L (≈ 3.54 µM) against Candida tropicalis; 0.5 mg/L (≈ 0.884 µM) with Cryptococcus neoformans.
As for `CN(Cc1ccccc1OCCCOc1ccc(CCC(=O)NO)cc1)CC(O)(Cn1cncn1)c1ccc(F)cc1F` (racemic), the MIC80 was 1 mg/L (≈ 1.68 µM) in the assay on Candida albicans [1]; 1 mg/L (≈ 1.68 µM) in the assay with Candida albicans [2]; 1 mg/L (≈ 1.68 µM) against Candida albicans [3]; 2 mg/L (≈ 3.36 µM) against Candida albicans [4]; 64 mg/L (≈ 107 µM) against Candida tropicalis; 2 mg/L (≈ 3.36 µM) in the assay on Cryptococcus neoformans.
`CN(Cc1ccc(OCCCOc2ccc(C(=O)NO)cc2)cc1)CC(O)(Cn1cncn1)c1ccc(F)cc1F` (racemic): the MIC80 stood at 0.125 mg/L (≈ 0.22 µM) in the assay with Candida albicans [1]; 0.5 mg/L (≈ 0.881 µM) with Candida albicans [2]; 1 mg/L (≈ 1.76 µM) against Candida albicans [3]; 1 mg/L (≈ 1.76 µM) in the assay on Candida albicans [4]; 0.25 mg/L (≈ 0.44 µM) against Candida tropicalis; 0.5 mg/L (≈ 0.881 µM) in the assay with Cryptococcus neoformans.
